This assay concerns Nucleic Acid. Briefly: DNA binding dissociation constant as KD. The class given is nucleic-acid assay.

Molecule `CS(=O)(=O)Nc1ccccc1Nc1c2ccccc2nc2ccccc12` displayed a Log Kd of 5.72.
Consider `CC[n+]1c(-c2ccccc2)c2cc(N)ccc2c2ccccc21`, for which the Log Kd stood at 4.9.
In the case of `Cn1cc(NC(=O)c2cc(NC(=O)c3cc(NC=O)cn3C)cn2C)cc1C(=O)NCCC(=N)N`, the Log Kd was 6.06.
`CS(=O)(=O)Nc1cccc(Nc2c3ccccc3nc3ccccc23)c1` showed a Log Kd of 5.8.
Then `CC[n+]1c(-c2ccccc2)c2cc(N)ccc2c2ccc(N)cc21`, with 5.7; and `C[n+]1c(-c2ccccc2)c2cc(N)ccc2c2ccc(N)cc21`, with 5.7.
For `COc1cc(NS(C)(=O)=O)ccc1Nc1c2ccccc2nc2ccccc12`, the Log Kd was found to be 5.14.
Take `COc1cccc2c1C(=O)c1c(O)c3c(c(O)c1C2=O)C[C@@](O)(C(C)=O)C[C@@H]3O[C@H]1C[C@H](N)[C@H](O)[C@H](C)O1`: the Log Kd stood at 6.49.
As to `CN(C)CCN1C(=O)c2cccc3cc([N+](=O)[O-])cc(c23)C1=O`, the Log Kd is 5.16.
In the case of `Nc1c2ccccc2nc2ccccc12` it was 5.7; in that of `Cc1cc2nc3ccccc3n(-c3cccc(N(C)C)c3)c-2c(C)c1=N`, 3.64; in that of `CCN(CC)CCCC(C)Nc1ccnc2cc(Cl)ccc12` (stereo unspecified), 4.25.
`Cc1c2ccncc2c(C)c2c1[nH]c1ccccc12` yielded a Log Kd of 5.18.
For the molecule `c1ccc2c(c1)ccc1[n+]2Cc2ccc3ccccc3[n+]2-1`, the Log Kd came to 4.7.
`Cc1c2cc[n+](C)cc2c(C)c2c1[nH]c1ccc(O)cc12` registered a Log Kd of 6.11.
With `CS(=O)(=O)Nc1ccc(Nc2c3ccccc3nc3ccccc23)cc1`, the Log Kd stood at 5.63.
Then `CCN(CC)CCCC(C)Nc1c2ccc(Cl)cc2nc2ccc(OC)cc12` (stereo unspecified), with 4.25; and `CCN(CC)CCOc1ccc2c(c1)C(=O)c1cc(OCCN(CC)CC)ccc1-2`, with 5.64; and `c1ccc2c(c1)[nH]c1cnccc12`, with 5.34.
As for `C[n+]1ccc(Nc2ccc(NC(=O)c3ccc(Nc4cc[n+](C)c5ccc(N)cc45)cc3)cc2)cc1`, the Log Kd worked out at 6.9.
Then `Cc1c2ccncc2c(C)c2c1[nH]c1ccc(O)cc12`, with 0.3.

For the origin of these results see ChEMBL document CHEMBL1122633, “Interactions of antitumor drugs with natural DNA: 1H NMR study of binding mode and kinetics” (J Med Chem, 1984).
